# Laboratory results reported in patent US6358885B1, “Substituted phenylheterocyclic herbicides” (Mississippi State University, priority 1992, dated 2002).
# How the values were obtained:
# speedwell = assay: Test C preemergence/postemergence greenhouse plant response rating 0 to 100; assay type: in vivo, Veronica persica; details: for Plant response rating Speedwell: 0 to 100 scale
# From the text: The compounds evaluated in this test were formulated in a non-phytoxic solvent and applied to the soil surface before plant seedlings emerged (preemergence application), to water that covered the soil surface (flood application), and to plants that were in the one-to-four leaf stage (postemergence application). A sandy loam soil was used for the preemergence and postemergence tests, while a silt loam soil was used in the flood test. Water depth was approximately 2.5 cm for the flood test and was maintained at this level for the duration of the test. Plant species in the preemergence and postemergence tests consisted of barley (Hordeum vulgare), bedstraw (Galium aparine), blackgrass (Alopecurus myosuroides), chickweed (Stellaria media), corn (Zea mays), cotton (Gossypium hirsutum), crabgrass (Digitaria sanguinalis), downy brome (Bromus tectorum), giant foxtail (Setaria faberii), lambsquarters (Chenopodium album), morningglory (Ipomoea hederacea), pigweed ([…]), rape (Brassica napus), ryegrass (Lolium multiflorum), sorghum (Sorghum bicolor), soybean (Glycine max), speedwell (Veronica persica), sugar beet (Beta vulgaris), velvetleaf (Abutilon theophrasti), wheat (Triticum aestivum), wild buckwheat (Polygonum convolvulus), and wild oat (Avena fatua). All plant species were planted one day before application of the compound for the preemergence portion-of this test. Plantings of these species were adjusted to produce plants of appropriate size for the post-emergence portion of the test. […] All plant species were grown using normal greenhouse practices. Visual evaluations of injury expressed on treated plants, when compared to untreated controls, were recorded approximately fourteen to twenty one days after application of the test compound. […] A dash (-) response means no test result.
# alfalfa = assay: Test G preemergence/postemergence greenhouse plant response rating 0 to 100; assay type: in vivo, Medicago ativa; details: 0 to 100 scale
# Method in brief: (§1)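 Pre- and postemergence treatments used compound in non-phytotoxic solvent on potted greenhouse plants grown from seed, rhizome or plant part. Postemergence plants were at the 2–4 leaf stage; damage was assessed by eye versus untreated pots after 13–21 days.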
# annual bluegrass = assay: as above; assay type: in vivo, Poa annua; details: 0 to 100 scale
# Method in brief: as §1
# bermudagrass = assay: as above; assay type: in vivo, Cynodon dactylon; details: 0 to 100 scale
# Method in brief: as §1
# common purslane = assay: as above; assay type: in vivo, Portulaca oleracea; details: 0 to 100 scale
# Method in brief: as §1
# common ragweed = assay: as above; assay type: in vivo, Ambrosia elatior; details: 0 to 100 scale
# Method in brief: as §1
# dallisgrass = assay: as above; assay type: in vivo, Paspalum dilatatum; details: 0 to 100 scale
# Method in brief: as §1
# goosegrass = assay: as above; assay type: in vivo, Eleusine indica; details: 0 to 100 scale
# Method in brief: as §1
# guineagrass = assay: as above; assay type: in vivo, Panicum maximum; details: 0 to 100 scale
# Method in brief: as §1
# itchgrass = assay: as above; assay type: in vivo, Rottboellia exaltata; details: 0 to 100 scale
# Method in brief: as §1
# johnsongrass = assay: as above; assay type: in vivo, Sorghum halepense; details: 0 to 100 scale
# Method in brief: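 Greenhouse pots, one species each; non-phytotoxic solvent vehicle. Read-out: visual injury vs untreated, 13–21 DAT. Dash denotes no result.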
# large crabgrass = assay: as above; assay type: in vivo, Digitaria sanguinalis; details: 0 to 100 scale
# Method in brief: as §1
# peanut = assay: as above; assay type: in vivo, Arachis hypoagaea; details: 0 to 100 scale
# Method in brief: as §1
# pitted morningglory = assay: as above; assay type: in vivo, Ipomoea lacunosa; details: 0 to 100 scale
# Method in brief: as §1
# purple nutsedge = assay: as above; assay type: in vivo, Cyperus rotundus; details: Rate 125 g/ha, 0 to 100 scale
# Method in brief: as §1
# sandbur = assay: as above; assay type: in vivo, Cenchrus echinatus; details: 0 to 100 scale
# Method in brief: as §1
# smooth crabgrass = assay: as above; assay type: in vivo, Digitaria ischaemum; details: 0 to 100 scale
# Method in brief: as §1
# yellow nutsedge = assay: as above; assay type: in vivo, Cyperus esculentus; details: Rate 125 g/ha, 0 to 100 scale
# Method in brief: as §1
smiles,measurement,setting,value
C#CCOc1cc(-c2nn3c(c2Br)CCCC3)c(F)cc1Cl [Compound 26],Plant response rating Speedwell,"speedwell; POSTEMERGENCE, 62 g/ha",100
same,Plant response rating Speedwell,"speedwell; POSTEMERGENCE, 250 g/ha",100
same,"Plant response rating (0 to 100), Speedwell","speedwell; POSTEMERGENCE, Rate 4 g/ha",90
same,Plant response rating Speedwell,"speedwell; PREEMERGENCE, 250 g/ha",100
same,"Plant response rating (0 to 100), Speedwell","speedwell; PREEMERGENCE, Rate 4 g/ha",90
same,"Plant response rating (0 to 100), Speedwell","speedwell; Rate 16 g/ha, POSTEMERGENCE",100
same,"Plant response rating (0 to 100), Speedwell","speedwell; Rate 16 g/ha, PREEMERGENCE",100
same,"Plant response rating, Alfalfa Var.","alfalfa; POSTEMERGENCE, Rate 125 g/ha",20
same,"Plant response rating, Alfalfa Var.","alfalfa; POSTEMERGENCE, Rate 250 g/ha",50
same,"Plant response rating, Alfalfa Var.","alfalfa; PREEMERGENCE, Rate 125 g/ha",0
same,"Plant response rating, Alfalfa Var.","alfalfa; PREEMERGENCE, Rate 250 g/ha",60
same,"Plant response rating, Ann Bluegrass","annual bluegrass; POSTEMERGENCE, Rate 125 g/ha",0
same,"Plant response rating, Ann Bluegrass","annual bluegrass; POSTEMERGENCE, Rate 250 g/ha",0
same,"Plant response rating, Ann Bluegrass","annual bluegrass; PREEMERGENCE, Rate 125 g/ha",0
same,"Plant response rating, Ann Bluegrass","annual bluegrass; PREEMERGENCE, Rate 250 g/ha",0
same,"Plant response rating, Bermudagrass","bermudagrass; POSTEMERGENCE, Rate 125 g/ha",0
same,"Plant response rating, Bermudagrass","bermudagrass; POSTEMERGENCE, Rate 250 g/ha",0
same,"Plant response rating, Bermudagrass","bermudagrass; PREEMERGENCE, Rate 125 g/ha",0
same,"Plant response rating, Bermudagrass","bermudagrass; PREEMERGENCE, Rate 250 g/ha",0
same,"Plant response rating, Cmn Purslane","common purslane; POSTEMERGENCE, Rate 125 g/ha",100
same,"Plant response rating, Cmn Purslane","common purslane; POSTEMERGENCE, Rate 250 g/ha",90
same,"Plant response rating, Cmn Purslane","common purslane; PREEMERGENCE, Rate 125 g/ha",30
same,"Plant response rating, Cmn Purslane","common purslane; PREEMERGENCE, Rate 250 g/ha",100
same,"Plant response rating, Cmn Ragweed","common ragweed; POSTEMERGENCE, Rate 125 g/ha",80
same,"Plant response rating, Cmn Ragweed","common ragweed; POSTEMERGENCE, Rate 250 g/ha",100
same,"Plant response rating, Cmn Ragweed","common ragweed; PREEMERGENCE, Rate 125 g/ha",0
same,"Plant response rating, Cmn Ragweed","common ragweed; PREEMERGENCE, Rate 250 g/ha",20
same,"Plant response rating, Dallisgrass","dallisgrass; POSTEMERGENCE, Rate 125 g/ha",0
same,"Plant response rating, Dallisgrass","dallisgrass; POSTEMERGENCE, Rate 250 g/ha",0
same,"Plant response rating, Dallisgrass","dallisgrass; PREEMERGENCE, Rate 125 g/ha",20
same,"Plant response rating, Dallisgrass","dallisgrass; PREEMERGENCE, Rate 250 g/ha",20
same,"Plant response rating, Goosegrass","goosegrass; POSTEMERGENCE, Rate 125 g/ha",0
same,"Plant response rating, Goosegrass","goosegrass; POSTEMERGENCE, Rate 250 g/ha",0
same,"Plant response rating, Goosegrass","goosegrass; PREEMERGENCE, Rate 125 g/ha",70
same,"Plant response rating, Goosegrass","goosegrass; PREEMERGENCE, Rate 250 g/ha",20
same,"Plant response rating, Guineagrass","guineagrass; POSTEMERGENCE, Rate 125 g/ha",0
same,"Plant response rating, Guineagrass","guineagrass; POSTEMERGENCE, Rate 250 g/ha",0
same,"Plant response rating, Guineagrass","guineagrass; PREEMERGENCE, Rate 125 g/ha",0
same,"Plant response rating, Guineagrass","guineagrass; PREEMERGENCE, Rate 250 g/ha",30
same,"Plant response rating, Itchgrass","itchgrass; POSTEMERGENCE, Rate 125 g/ha",0
same,"Plant response rating, Itchgrass","itchgrass; POSTEMERGENCE, Rate 250 g/ha",0
same,"Plant response rating, Itchgrass","itchgrass; PREEMERGENCE, Rate 125 g/ha",0
same,"Plant response rating, Itchgrass","itchgrass; PREEMERGENCE, Rate 250 g/ha",50
same,"Plant response rating, Johnsongrass","johnsongrass; POSTEMERGENCE, Rate 125 g/ha",0
same,"Plant response rating, Johnsongrass","johnsongrass; POSTEMERGENCE, Rate 250 g/ha",0
same,"Plant response rating, Johnsongrass","johnsongrass; PREEMERGENCE, Rate 125 g/ha",0
same,"Plant response rating, Johnsongrass","johnsongrass; PREEMERGENCE, Rate 250 g/ha",0
same,"Plant response rating, Large Crabgrass","large crabgrass; POSTEMERGENCE, Rate 125 g/ha",0
same,"Plant response rating, Large Crabgrass","large crabgrass; POSTEMERGENCE, Rate 250 g/ha",0
same,"Plant response rating, Large Crabgrass","large crabgrass; PREEMERGENCE, Rate 125 g/ha",90
same,"Plant response rating, Large Crabgrass","large crabgrass; PREEMERGENCE, Rate 250 g/ha",90
same,"Plant response rating, Peanuts","peanut; POSTEMERGENCE, Rate 125 g/ha",0
same,"Plant response rating, Peanuts","peanut; POSTEMERGENCE, Rate 250 g/ha",0
same,"Plant response rating, Peanuts","peanut; PREEMERGENCE, Rate 250 g/ha",0
same,"Plant response rating, Pit Morninglory","pitted morningglory; POSTEMERGENCE, Rate 125 g/ha",0
same,"Plant response rating, Pit Morninglory","pitted morningglory; POSTEMERGENCE, Rate 250 g/ha",40
same,"Plant response rating, Pit Morninglory","pitted morningglory; PREEMERGENCE, Rate 125 g/ha",0
same,"Plant response rating, Pit Morninglory","pitted morningglory; PREEMERGENCE, Rate 250 g/ha",20
same,"Plant response rating, Purple Nutsedge",purple nutsedge; POSTEMERGENCE,0
same,"Plant response rating, Purple Nutsedge",purple nutsedge; PREEMERGENCE,0
same,"Plant response rating, S. Sandbur","sandbur; POSTEMERGENCE, Rate 125 g/ha",0
same,"Plant response rating, S. Sandbur","sandbur; POSTEMERGENCE, Rate 250 g/ha",0
same,"Plant response rating, S. Sandbur","sandbur; PREEMERGENCE, Rate 125 g/ha",0
same,"Plant response rating, S. Sandbur","sandbur; PREEMERGENCE, Rate 250 g/ha",0
same,"Plant response rating, Smooth Crabgras","smooth crabgrass; POSTEMERGENCE, Rate 125 g/ha",0
same,"Plant response rating, Smooth Crabgras","smooth crabgrass; POSTEMERGENCE, Rate 250 g/ha",0
same,"Plant response rating, Smooth Crabgras","smooth crabgrass; PREEMERGENCE, Rate 125 g/ha",0
same,"Plant response rating, Smooth Crabgras","smooth crabgrass; PREEMERGENCE, Rate 250 g/ha",40
same,"Plant response rating, Yellow Nutsedge",yellow nutsedge; POSTEMERGENCE,0
same,"Plant response rating, Yellow Nutsedge",yellow nutsedge; PREEMERGENCE,0
